Primed or numbered codes have the meaning given here. Where no end group is shown, it is not given here. FITC′ = not defined here
Legend:
[1] = tested on: OE33 esophageal adenocarcinoma cells; assay: Competitive inhibition assay (peptide vs SNFYMPL-phage); type: cell-based, human; conditions: peptide at 100, 200, and 400 μM
Protocol: Competitive inhibition assay. The OE33 and Q-hTERT cells were detached and blocked. […] pfu of SNFYMPL-phage was incubated with OE33 cells (1×10^7) or Q-hTERT cells (1×10^7), ‘SNFYMPL-GGGSK’ peptide or scrambled peptide ‘NLMPYFS-GGGSK’ were added into cell-phage mixture at the concentration of 100, 200, and 400 μm for competition with the phage. After washing three times with PBS/0.1% (v/v) Tween-20 and one time with 0.2 M glycine, pH 2.2/0.1% BSA for two minutes, the bound phage were recovered and titered. Every sample was carried out in triplicate. The amount of bound phage in every sample was […].

[2] = tested on: SEG1 (adenocarcinoma) cells; assay: Target peptide binding to cell surface targets; type: cell-based; conditions: 100 μM
Protocol: Identification of plasma membrane targets on adenocarcinoma cells that affinity bind to “ASYNYDA” (SEQ ID NO: 5). The carboxyl end of the target peptide was linked to affinity column beads using EDC chemistry. Seg-1 cells were grown to confluency, lysed by sonification, and fractionated by centrifugation. The resulting membrane fractions were applied to the target peptide labeled column and specific binding proteins were eluted. These proteins were separated and collected in fractions by a reverse phase column using a Beckman PF 2D liquid chromatography apparatus. The protein fractions were spotted on a nitrocellulose coated micro array printer slide and probed with the FITC-labeled target peptide. The fluorescence intensities at each spot were quantified with an Axon Imager. Protein fractions with the highest intensity were trypsinized, and proteomic analysis was performed using a Finnigan LTQ linear ion trap mass spectrometer. The protein identities were confirmed using an International Protein Index (IPI) database search, utilizing the SEQUEST program and with open source Xtandem and peptide and protein prophet software. […] See Table 1 below for list of targets identified. All identified proteins were either an exact match or >0.99.

[3] = tested on: Q-hTERT (intestinal metaplasia) cells; assay: Target peptide binding to cell surface targets; type: cell-based; conditions: 100 μM
0E-21 (squamous) cells = assay: Target peptide binding to cell surface targets; type: cell-based; conditions: 100 μM
[4] = tested on: Q-hTERT (intestinal metaplasia) cells; assay: Fluorescence images for peptide binding on culture cells; type: cell-based
Protocol: (§1) Fluoresence images for peptide binding on culture cells. The OE33 and QhTERT cells were grown in chamber slides to 80% confluence. Blocking of non-specific binding to these cells was performed by adding 200 μl of 1% BSA diluted in PBS for 30 min. The cells were then incubated with […] of the candidate FITC-labeled peptide in serum free media for 10 minutes at room temperature. The cells were washed 3 times using 200 μL PBS/0.5% TWEEN 20 in room temperature. The cells were fixed in ice cold 4% praformaldehyde for 5 minutes. The cells were then stained with Vectashield mounting medium containing DAPI. Fluorescence images were collected with a confocal microscope (Nikon 1000) at 200×. The fluorescence intensity from the cells in 3 images was averaged to assess for peptide binding using NIH Image J software.

[5] = tested on: OE33 (esophageal adenocarcinoma) cells; assay: as above; type: cell-based, human; conditions: for intensity associated with binding to the cell surface: OE33
Protocol: as §1

[6] = tested on: Human endoscopic mucosal resection (EMR) specimens of esophageal mucosa; assay: Fluorescence-labeled polypeptide binding to endoscopic mucosal resection (EMR) specimens; conditions: for mean fluorescence intensity value: 100 μm, 5 minutes
Protocol: Human endoscopic mucosal resection (EMR) specimens were freshly taken from regions of suspected dysplastic mucosa. Each specimen was incubated with the FITC-labeled polypeptide of SEQ ID NO: 1 at a concentration of 100 μm for 5 minutes. Ink was used to mark the 12 o'clock position for orientation. White light stereo microscope (Olympus SZX16) images were obtained with an overlying 20×20 mm grid to register the histology. Fluorescence images were obtained at an exposure of 12 ms. The tissue was then fixed in formalin. An expert GI pathologist sectioned the specimens along cross-sections at ˜2 mm intervals longitudinally and interpreted the histopathology while blinded to the fluorescence images. The mean intensity of the fluorescence images in each 1 mm interval was measured using the NIH Image J processing software and compared with histology.

“NLMPYFS-GGGSK (NLMPYFSGGGSK) [scrambled control peptide, reference compound]” was tested, and the “inhibition of SNFYMPL-phage binding to OE33 cells” value (“inhibition” below) [1] was “no inhibition ability” and the “inhibition” value ([1]; listed as scrambled peptide ‘NLMPYFS’) was “did not inhibit”.

In the case of SNFYMPL-GGGSK, the “inhibition” value [1] is reported as “could obviously inhibit” and the “inhibition” value ([1]; listed as ‘SNFYMPL’ peptide) is reported as “significantly inhibited the SNFYMPL-phage binding to the OE33 cells in a concentration dependent manner”.

ASYNYDA was tested, and the “binding to cell surface targets” value [2] was “preferential binding”, the “binding to cell surface targets” value [3] was “lack of binding” and the “binding to cell surface targets” value (0E-21 (squamous) cells) was “lack of binding”.

For “SNFYMPL-GGGSK-FITC (SNFYMPLGGGSK-{FITC′}) [FITC conjugated at the C-terminus of SNFYMPL via the GGGSK linker]”, the “intensity associated with binding to the cell surface” value ([4]; FIG. 3 legend) was 25.7±2.5, the intensity associated with binding to the cell surface ([4]; NIH Image J) was 25.7 mean grey value and the “intensity associated with binding to the cell surface” value ([5]; FIG. 3 legend) was 69±18. The intensity associated with binding to the cell surface ([5]; NIH Image J) was 69 mean grey value, the “cells with peptide bound to the plasma membrane” value ([5]; OE33 cells, FITC-labeled peptide, 10 minutes) was greater than 90% and the “mean fluorescence intensity value” ([6]; dysplasia (n=69 sites)) was 56.5 gray levels. For the same substance, the “mean fluorescence intensity value” ([6]; gastric mucosa (n=35 sites)) was 24.1 gray levels, the “mean fluorescence intensity value” ([6]; intestinal metaplasia (n=66 sites)) was 42.1 gray levels and the “binding to Barrett's dysplasia” value ([6]; mucosal surface areas on the centimeter scale) was “Selective binding”. The “mean fluorescence intensity value” ([6]; squamous (n=107 sites)) was 27.1 gray levels.
